Source: patent US20180243298A1, “TRPV3 MODULATORS” (AbbVie Inc., priority 2015, published 2018)
Read-outs that look alike come from different tables or passages of the source.

Assays:
[1] = molecular target: T1, human TRPV3 (Homo sapiens, UniProt Q8NET8); assay: Calcium flux assay (FLIPR TETRA), recombinant HEK293 cells expressing TRPV3, 2-APB response; format: cell-based; conditions: 2-APB at its EC80
T1 construct: expressed in transfected cells; host or cells: HEK293
T1 sequence (Q8NET8 1-790): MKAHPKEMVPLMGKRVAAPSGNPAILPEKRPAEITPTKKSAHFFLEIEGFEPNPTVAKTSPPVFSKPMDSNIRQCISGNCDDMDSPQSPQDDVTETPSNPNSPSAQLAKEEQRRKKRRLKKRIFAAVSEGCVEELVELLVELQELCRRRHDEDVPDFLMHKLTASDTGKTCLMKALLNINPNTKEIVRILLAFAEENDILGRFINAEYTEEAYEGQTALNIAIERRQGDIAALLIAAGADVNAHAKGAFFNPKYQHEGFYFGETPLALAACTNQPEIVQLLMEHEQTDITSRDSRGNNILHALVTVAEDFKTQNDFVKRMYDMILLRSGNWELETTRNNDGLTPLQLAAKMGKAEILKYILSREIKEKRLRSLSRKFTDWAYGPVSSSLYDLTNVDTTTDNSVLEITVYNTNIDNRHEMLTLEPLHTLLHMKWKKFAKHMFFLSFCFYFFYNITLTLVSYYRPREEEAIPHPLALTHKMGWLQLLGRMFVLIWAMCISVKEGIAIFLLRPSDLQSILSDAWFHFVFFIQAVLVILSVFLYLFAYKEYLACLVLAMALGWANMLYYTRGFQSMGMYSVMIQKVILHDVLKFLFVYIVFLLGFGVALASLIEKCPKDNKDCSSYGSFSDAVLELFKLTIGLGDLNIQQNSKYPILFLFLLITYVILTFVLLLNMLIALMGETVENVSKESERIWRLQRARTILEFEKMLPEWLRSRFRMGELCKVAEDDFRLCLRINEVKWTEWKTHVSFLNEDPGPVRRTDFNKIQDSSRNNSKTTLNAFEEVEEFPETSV
Method in brief: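 HEK293 cells stably expressing human or mouse TRPV3, loaded with Calcium-4 dye for 90–120 min, read on FLIPR TETRA. Peak fluorescence rise over baseline expressed as percent of the maximal response to 2-APB at its EC80 without compound.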

[2] = test system: FITC-challenged mice; assay: Contact hypersensitivity (CHS) to FITC, ear swelling in mice; format: in vivo, mice (BALB/c); conditions: Mus musculus, reduction in ear skin thickness vs vehicle, 24 hours after FITC challenge, read-out: FITC % effect
Description: (ii) In vivo Data The following protocol was used to evaluate the efficacy of a compound against contact hypersensitivity:
Young adult female BALB/c mice (18±2 g body weight at 6-8 weeks old) Charles River Laboratories) were maintained under pathogen-free conditions and housed in an animal room maintained t at temperature of 21±1° C. and a humidity of 43±5%. Induction of contact hypersensitivity (CHS) and ear thickness measurements for all animals were carried out under light anesthesia (3-5% isoflurane/oxygen) for 1-2 minutes.
Contact hypersensitivity consists of the afferent or initiation sensitizing phase, and the efferent or elicitation phase. The latter phase occurs when epidermal cells encounter a particular antigen to which the epidermal cells have previously been exposed, and is characterized in rodents by localized swelling in the skin.
Fluorescein isothiocyanate (FITC) was purchased from Sigma-Aldrich and dissolved in 1:1 in acetone/dibutylphthalate prior to epicutaneous application. Mice were sensitized by painting epicutaneously 40 uL of 0.5% FITC on the abdomen ventral skin shaved one day prior to sensitization. Six days later, mice were challenged by painting epicutaneously 20 uL total volume of 0.5% FITC on the right ear (10 uL on either side). Control mice were treated with vehicle only. Ear swelling was measured 24 hours after challenge. Treatment groups were dosed orally at a dose volume of 10 mL/kg with compounds either BID (1 hour prior to FITC challenge, 8 hours after first dose and 2 hours prior to ear swelling measurement at 24 hours post FITC challenge) or QD (1 hour prior to FITC challenge and 2 hours prior to ear swelling measurement at 24 hours post FITC challenge). Inflammation was determined by the degree of ear swelling of the hapten exposed ear compared with the untreated ear with a Quick Mini thickness-gauge caliber (Mitutoyo, Japan). The change in ear thickness after allergen treatment can be used to calculate the percent suppression of contact hypersensitivity.
The level of compound-mediated suppression of ear skin thickness in FITC-challenged mice is indicated in Table 2 wherein “A” refers to a reduction in ear skin thickness of >50%, “B” refers to a reduction in ear skin thickness of 30-50% and “C” refers to a reduction in ear skin thickness of <30% relative to vehicle-treated animals.

Structure (SMILES) | IC50 [1] [nM] | further results
COc1ncnc(OC)c1C(=O)Nc1nc(C(F)(F)F)c(-c2cncc(F)c2)s1 [Example 27, N-[5-(5-fluoropyridin-3-yl)-4-(trifluoromethyl)-1,3-thiazol-2-yl]-4,6-dimethoxypyrimidine-5-carboxamide] | 50 to 100 | inhibition in vivo at 30 mg/kg ([2]; 30 mg/kg bid po): < 30%
COc1ncnc(OC)c1C(=O)Nc1nc(C(F)(F)F)c(-c2cccc(C#N)n2)s1 [Example 31, N-[5-(6-cyanopyridin-2-yl)-4-(trifluoromethyl)-1,3-thiazol-2-yl]-4,6-dimethoxypyrimidine-5-carboxamide] | < 50 | inhibition in vivo at 30 mg/kg ([2]; 30 mg/kg qd po): > 50%
COc1ncnc(OC)c1C(=O)Nc1nc(C(F)(F)F)c(-c2ccnc(C(C)(C)C#N)c2)s1 [Example 33, N-{5-[2-(2-cyanopropan-2-yl)pyridin-4-yl]-4-(trifluoromethyl)-1,3-thiazol-2-yl}-4,6-dimethoxypyrimidine-5-carboxamide] | 50 to 100 | inhibition in vivo at 30 mg/kg ([2]; 30 mg/kg qd po): > 50%
COc1ncnc(OC)c1C(=O)Nc1nc(C(F)(F)F)c(-c2cccc(C#N)c2)s1 [Example 40, N-[5-(3-cyanophenyl)-4-(trifluoromethyl)-1,3-thiazol-2-yl]-4,6-dimethoxypyrimidine-5-carboxamide] | < 50 | inhibition in vivo at 30 mg/kg ([2]; 30 mg/kg bid po): < 30%
COc1ncnc(OC)c1C(=O)Nc1nc(C(F)(F)F)c(-c2cccnc2C#N)s1 [Example 42, N-[5-(2-cyanopyridin-3-yl)-4-(trifluoromethyl)-1,3-thiazol-2-yl]-4,6-dimethoxypyrimidine-5-carboxamide] | < 50 | inhibition in vivo at 30 mg/kg ([2]; 30 mg/kg bid po): < 30%
COc1ncnc(OC)c1C(=O)Nc1nc(C(F)(F)F)c(CN2CCC(OC)CC2)s1 [Example 48, 4,6-dimethoxy-N-{5-[(4-methoxypiperidin-1-yl)methyl]-4-(trifluoromethyl)-1,3-thiazol-2-yl}pyrimidine-5-carboxamide] | 100 to 500 | inhibition in vivo at 30 mg/kg ([2]; 30 mg/kg bid po): < 30%
COc1ncnc(OC)c1C(=O)N(COP(=O)(O)O)c1nc(-c2ccc(C(F)(F)F)cn2)cs1 [Example 74, ([(4,6-dimethoxypyrimidin-5-yl)carbonyl]{4-[5-(trifluoromethyl)pyridin-2-yl]-1,3-thiazol-2-yl}amino)methyl dihydrogen phosphate] | – | inhibition in vivo at 100 mg/kg ([2]; 100 mg/kg bid po): > 50%
COc1ncnc(OC)c1C(=O)Nc1nc(C(F)(F)F)c(-c2ccnn2CC2CC2)s1 [Example 188, N-{5-[1-(cyclopropylmethyl)-1H-pyrazol-5-yl]-4-(trifluoromethyl)-1,3-thiazol-2-yl}-4,6-dimethoxypyrimidine-5-carboxamide] | < 50 | –
COc1ncnc(OC)c1C(=O)Nc1nc(C(C)(C)C)c(C#N)s1 [Example 189, N-(4-tert-butyl-5-cyano-1,3-thiazol-2-yl)-4,6-dimethoxypyrimidine-5-carboxamide] | < 50 | –
COc1ncnc(OC)c1C(=O)Nc1nc(C2CC2)c(Cc2ccc(F)cc2)s1 [Example 190, N-[4-cyclopropyl-5-(4-fluorobenzyl)-1,3-thiazol-2-yl]-4,6-dimethoxypyrimidine-5-carboxamide] | 50 to 100 | –
COc1ncnc(OC)c1C(=O)Nc1nc(CC(C)(C)C)cs1 [Example 191, N-[4-(2,2-dimethylpropyl)-1,3-thiazol-2-yl]-4,6-dimethoxypyrimidine-5-carboxamide] | 50 to 100 | –
COc1ncnc(OC)c1C(=O)Nc1nc(C(C)(C)C)c(Br)s1 [Example 192, N-(5-bromo-4-tert-butyl-1,3-thiazol-2-yl)-4,6-dimethoxypyrimidine-5-carboxamide] | < 50 | –
CCOC(=O)c1sc(NC(=O)c2c(OC)ncnc2OC)nc1C(C)(C)C [Example 193, ethyl 4-tert-butyl-2-{[(4,6-dimethoxypyrimidin-5-yl)carbonyl]amino}-1,3-thiazole-5-carboxylate] | < 50 | –
COc1ncnc(OC)c1C(=O)Nc1nc(C(F)(F)F)c(-c2ccc(OCC(F)(F)F)nc2)s1 [Example 194, 4,6-dimethoxy-N-{5-[6-(2,2,2-trifluoroethoxy)pyridin-3-yl]-4-(trifluoromethyl)-1,3-thiazol-2-yl}pyrimidine-5-carboxamide] | 100 to 500 | –
COc1ncnc(OC)c1C(=O)Nc1nc(C(F)(F)F)c(-c2cccc(S(=O)(=O)N3CCOCC3)c2)s1 [Example 195, 4,6-dimethoxy-N-{5-[3-(morpholin-4-ylsulfonyl)phenyl]-4-(trifluoromethyl)-1,3-thiazol-2-yl}pyrimidine-5-carboxamide] | 50 to 100 | –
COCCN(C)S(=O)(=O)c1cccc(-c2sc(NC(=O)c3c(OC)ncnc3OC)nc2C(F)(F)F)c1 [Example 197, 4,6-dimethoxy-N-[5-{3-[(2-methoxyethyl)(methyl)sulfamoyl]phenyl}-4-(trifluoromethyl)-1,3-thiazol-2-yl]pyrimidine-5-carboxamide] | < 50 | –
COc1ncnc(OC)c1C(=O)Nc1nc(C(F)(F)F)c(-c2ccc(CN3CCOCC3)cc2)s1 [Example 198, 4,6-dimethoxy-N-{5-[4-(morpholin-4-ylmethyl)phenyl]-4-(trifluoromethyl)-1,3-thiazol-2-yl}pyrimidine-5-carboxamide] | < 50 | –
CCn1cc(-c2sc(NC(=O)c3c(OC)ncnc3OC)nc2C(F)(F)F)c(C)n1 [Example 200, N-[5-(1-ethyl-3-methyl-1H-pyrazol-4-yl)-4-(trifluoromethyl)-1,3-thiazol-2-yl]-4,6-dimethoxypyrimidine-5-carboxamide] | < 50 | –
COc1ncnc(OC)c1C(=O)Nc1nc(C(F)(F)F)c(-c2cccc(NS(=O)(=O)N(C)C)c2)s1 [Example 201, N-[5-{3-[(dimethylsulfamoyl)amino]phenyl}-4-(trifluoromethyl)-1,3-thiazol-2-yl]-4,6-dimethoxypyrimidine-5-carboxamide] | 50 to 100 | –
COc1ncnc(OC)c1C(=O)Nc1nc(C(F)(F)F)c(-c2cnc(C3CC3)nc2)s1 [Example 203, N-[5-(2-cyclopropylpyrimidin-5-yl)-4-(trifluoromethyl)-1,3-thiazol-2-yl]-4,6-dimethoxypyrimidine-5-carboxamide] | < 50 | –
COc1ncnc(OC)c1C(=O)Nc1nc(C(F)(F)F)c(-c2cnc(N3CCOCC3)c(C#N)c2)s1 [Example 204, N-{5-[5-cyano-6-(morpholin-4-yl)pyridin-3-yl]-4-(trifluoromethyl)-1,3-thiazol-2-yl}-4,6-dimethoxypyrimidine-5-carboxamide] | < 50 | –
COc1ncnc(OC)c1C(=O)Nc1nc(C(F)(F)F)c(-c2cnc(C#N)c(OCC3COC3)c2)s1 [Example 205, N-(5-(6-cyano-5-(oxetan-3-yl-methoxy)pyridine-3-yl)-4-(trifluoromethyl)thiazol-2-yl)-4,6-dimethoxypyrimidine-5-carboxamide] | 100 to 500 | –
COCc1sc(NC(=O)c2c(OC)ncnc2OC)nc1C(F)(F)F [Example 206, 4,6-dimethoxy-N-(5-(methoxymethyl)-4-(trifluoromethyl)thiazol-2-yl)pyrimidine-5-carboxamide] | 100 to 500 | –
